In patent US20250367211A1, “RESCUE TREATMENT OF POST OPERATIVE NAUSEA AND VOMITING” (ACACIA PHARMA LIMITED, priority 2017, published 2025):

Tests used:
[1] = compared with the (R+)-enantiomer; cited from earlier work
[2] = system: adult surgical patients at moderate-to-high risk of suffering PONV; assay: Phase II dose-ranging trial, IV amisulpride for PONV prophylaxis; type: in vivo, human
Method: In a multi-centre, double-blind, randomised, dose-ranging Phase II trial (conducted by the applicant), amisulpride was given intravenously to adult surgical patients at moderate-to-high risk of suffering PONV (prophylaxis), at doses of 1 mg, 5 mg and 20 mg, with a fourth group receiving placebo.

[3] = system: adult surgical patients at moderate-to-high risk of suffering PONV; assay: Two Phase III placebo-controlled trials, PONV prophylaxis; type: in vivo, human; conditions: 5 mg, 626 evaluable patients, p<0.01 vs placebo (59%)
[4] = system: adult surgical patients at high risk of suffering PONV; assay: Phase III trial, PONV prophylaxis in combination with a standard anti-emetic; type: in vivo, human; conditions: 5 mg in combination with a standard anti-emetic, 1147 evaluable patients, p<0.001 vs placebo plus standard anti-emetic (53%)
[5] = system: patients with PONV who had not received prior prophylaxis; assay: Clinical trial, treatment of PONV in patients without prior prophylaxis; type: in vivo, human; conditions: no prior prophylaxis
Method: In another clinical trial conducted by the applicant, amisulpride at doses of 5 mg and 10 mg were compared with placebo for the treatment of PONV, in patients who had not received prior prophylaxis.

[6] = system: adult patients with established PONV who have had prior PONV prophylaxis; assay: Study 1: rescue treatment of established PONV after failed prior prophylaxis; type: in vivo, human; conditions: for complete response (CR) rate: no emesis 30 min to 24 h and no rescue medication in 24 h, placebo 28.5%
Method: A randomised, double-blind, placebo-controlled study of amisulpride for IV injection as treatment of established postoperative nausea and vomiting, in patients who have had prior prophylaxis was conducted. The primary aim of the study was to compare the efficacy of 5 mg and 10 mg amisulpride to placebo as treatment of established PONV, in patients who have had prior PONV prophylaxis.
The study was performed in adult patients (≥18 years) with an expected duration of inhalational anaesthesia of at least 1 hour, who experienced PONV in the 24-hour period after surgery, having had prior PONV prophylaxis.
Amisulpride at a dose of 5 mg or 10 mg or matching placebo was given once by slow IV administration, over about 2 minutes.
The primary efficacy variable was the dichotomous variable: success or failure of initial PONV treatment, where success is defined as no emetic episodes (vomiting or retching) from 30 minutes to 24 hours after administration of study medication and no administration of antiemetic rescue medication at any time in the 24-hour period after study medication (a “complete response”).
The secondary efficacy variables included: • The occurrence and severity of nausea (a VRS score >0) and of significant nausea (a VRS score ≥4), including measures of the time course of nausea, such as area under the curve for nausea scores for time periods up to 24 hours. • The occurrence of vomiting (to include retching) after administration of study medication. • Use of anti-emetic rescue medication. • Time to failure of initial PONV treatment. • Sub-analyses of success and failure according to various parameters, including by time of onset of PONV relative to end of surgery and by sex.

Compound	share of therapeutic activity of amisulpride [1]	incidence of PONV ([2]; 1 mg intravenously, p<0.05 vs placebo (69%)) [%]	incidence of PONV ([2]; 5 mg intravenously, p<0.01 vs placebo (69%)) [%]	incidence of PONV compared to placebo ([2]; 20 mg intravenously, placebo 69%, not stated as significant)	incidence of PONV [3] [%]	incidence of PONV [4] [%]	treatment of PONV versus placebo ([5]; 5 mg)	treatment of PONV versus placebo ([5]; 10 mg)	clinical efficacy, 5 mg versus 10 mg dose ([5]; treatment of PONV)	complete response (CR) rate ([6]; 5 mg once by slow IV, 237 patients, p = 0.109)	complete response (CR) rate ([6]; 10 mg once by slow IV, 230 patients, p = 0.003)	efficacy as PONV rescue treatment, 10 mg versus 5 mg dose ([6]; patients with prior unsuccessful PONV prophylaxis)
CCN1CCCC1CNC(=O)c1cc(S(=O)(=O)CC)c(N)cc1OC (stereo not drawn) [(S−)-amisulpride]	almost all of the therapeutic activity											
CCN1CCCC1CNC(=O)c1cc(S(=O)(=O)CC)c(N)cc1OC (racemic) [amisulpride]		48	40	lower	48	42	significantly better than placebo	significantly better than placebo	no difference	33.8% (p = 0.109)	41.7%, (p = 0.003)	more effective
